Data reported in patent US20200087625A1, “METHODS FOR ISOLATING, EXPANDING AND ADMINISTERING CANCER SPECIFIC CD8+ T CELLS” (priority 2017, published 2020).

Key:
4T1 cells = experiment: Ex vivo tumor-specific cytotoxicity study; assay type: cell-based, BALB/c mice; details: effector to target cell ratio 16:1; vs vehicle
Method: FIGS. 23A-23G. Systemic administration of […] induces tumor-specific CD8^+ T cells. (A) Protocol of IV metastasis model. (B) BALB/c mice (n=B-15/group) were i.v. injected with 4T1 cells (2×10^4) on day 0.1V270 (2, 20, or 200 μg/injection) was i.p. administered on days −1, 7, 10, and 14. The numbers of lung nodules were counted on day 21. (C) 200 μg/injection 1V270 was i.p. administered on days −1 or 0 followed by days 7, 10, and 14 where indicated. The numbers of lung nodules were counted on day 21. […] Intracellular granzyme B (D) and IFNγ (E) were analyzed by flow cytometry. […] The percent specific killing was calculated. Data were analyzed by two-way ANOVA using a Bonferroni post hoc test comparing treatment groups against vehicle group. *P<0.05. […]
Tumor-specific cytotoxicity was examined using 4T1 cells as target cells and BALB/3T3 cells as irrelevant cells. […] The frequencies of 4T1 (CFSE high) and BALB/3T3 (CFSE low) cells were determined by flow cytometry, and the percent specific killing was calculated. […]
To examine the role of CD8^+ T cells after systemic 1V270 treatment, mediastinal lymph node (mLN) cells, splenocytes, and lung tissues were analyzed in the IV metastasis model on day 21 (FIGS. 23D-2G). Activation of CD8^+ T cells was assessed by intracellular staining for granzyme B and interferon γ (IFNγ). […]

SCC7 = SCC7 tumor model, 1V270 with systemic anti-PD-1 agent; assay type: in vivo, C3H mice; details: day 21, flow cytometry
Method: FIGS. 2A-2F. […] C3H mice (n=5-8/group) were implanted with SCC7 and carcinoma cells 1A. Tumors and spleens were harvested on day 21 and T cells in TILs or spleens were analyzed by flow cytometry. (A and B) Tumor infiltrating CD8^+ T cells were gated on CD45^+CD3^+CD8^+ populations. Number of CD8^+ T cells (A) and IFNγ^+CD8^+ cells (B) per tumor volume (mm^3) were calculated and plotted. (C) Representative immunohistochemistry images of the tumors (day 21) stained for CD8 (red) and DAPI (blue). Scale bar: 20 μm. (D) Number of IFNγ^+CD8^+ T cells in spleens. Bars indicate mean±SEM. Each dot represents an individual animal and bars indicate mean±SEM in A, B and D. P*<0.05, **P<0.01 (Kruskal-Wallis test with Dunn's post hoc test), n=5-8/group. (E) Tumor volumes at the injected sites were plotted against the log of the number of IFNγ^+CD8^+ T cells in the tumor microenvironment. […] (F) The tumor volumes (day 21, injected side) were plotted against the log of the numbers of IFNγ^+CD8^+ T cells in the spleen.
FIGS. 3A-3E. […] (A-D) SCC7-bearing mice (n=4/group) were treated as described in FIG. 2. Tumors and spleens were harvested on day 21 and CD8^+ T cells were isolated using MACSMicroBead. RNA was isolated and next-generation sequencing was performed. (A) Representative data of TCR repertoire clonality of CD8^+ T cells. […]

## CCCCCCCCC=CCCCCCCCC(=O)OCC(COP(=O)(O)OCCNC(=O)c1ccc(Cn2c(=O)[nH]c3c(N)nc(OCCOC)nc32)cc1)OC(=O)CCCCCCCC=CCCCCCCCC (centres unmarked) [1V270]
4T1 cells
  tumor-specific cytotoxicity of CD8+ T cells: significantly higher tumor-specific cytotoxicity
SCC7
  CD8+ population in TILs: increased CD8^+ population in TILs
